Legend:
Experiment in all cases: relative viability (nuclei count vs DMSO), 5 days (fraction); higher = more cells survive
AZD8055 + Tozasertib = compound: COc1ccc(-c2ccc3c(N4CCOC[C@@H]4C)nc(N4CCOC[C@@H]4C)nc3n2)cc1CO [AZD8055] + Cc1cc(Nc2cc(N3CCN(C)CC3)nc(Sc3ccc(NC(=O)C4CC4)cc3)n2)n[nH]1 [Tozasertib] (partner 0.1 µM)
Method in brief: (§1)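 Lung cancer cell lines in 1536-well plates got either a single drug or a fixed anchor-drug dose together with five library-drug doses (not always all listed) in √10 steps, by pin tool, on the day after seeding. Nuclei were counted after 5 days, and relative viability is the treated-to-vehicle ratio of nuclei counts. Values are medians of duplicate plates.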

AZD8055 + AZD7762 = compound: COc1ccc(-c2ccc3c(N4CCOC[C@@H]4C)nc(N4CCOC[C@@H]4C)nc3n2)cc1CO [AZD8055] + NC(=O)Nc1cc(-c2cccc(F)c2)sc1C(=O)N[C@H]1CCCNC1 [AZD7762] (partner 0.2 µM)
Method in brief: as §1

AZD8055 + Trametinib = compound: COc1ccc(-c2ccc3c(N4CCOC[C@@H]4C)nc(N4CCOC[C@@H]4C)nc3n2)cc1CO [AZD8055] + CC(=O)Nc1cccc(-n2c(=O)n(C3CC3)c(=O)c3c(Nc4ccc(I)cc4F)n(C)c(=O)c(C)c32)c1 [Trametinib] (partner 0.02 µM)
Method in brief: as §1

AZD8055 = compound: COc1ccc(-c2ccc3c(N4CCOC[C@@H]4C)nc(N4CCOC[C@@H]4C)nc3n2)cc1CO [AZD8055]
Method in brief: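 Five library-drug doses, separated by factors of √10, were pinned into 1536-well plates holding lung cancer cell lines after an overnight stay at 37 °C. Cells were fixed, permeabilised and Hoechst-stained in one step after 5 days without medium change, then imaged at 4×. Viability compares treated-well with vehicle-well nuclei, counted in MetaXpress, as a median across plates. Passing plates had control CV below 25% and at least one doubling.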

Cell Line	relative viability (AZD8055 + Tozasertib; first compound 0.01 µM)	relative viability (AZD8055 + Tozasertib; first compound 0.03162 µM)	relative viability (AZD8055 + Tozasertib; first compound 0.1 µM)	relative viability (AZD8055 + Tozasertib; first compound 0.3162 µM)	relative viability (AZD8055 + Tozasertib; first compound 1 µM)	relative viability (AZD8055 + AZD7762; first compound 0.01 µM)	relative viability (AZD8055 + AZD7762; first compound 0.03162 µM)	relative viability (AZD8055 + AZD7762; first compound 0.1 µM)	relative viability (AZD8055 + AZD7762; first compound 0.3162 µM)	relative viability (AZD8055 + AZD7762; first compound 1 µM)	relative viability (AZD8055 + Trametinib; first compound 0.01 µM)	relative viability (AZD8055 + Trametinib; first compound 0.03162 µM)	relative viability (AZD8055 + Trametinib; first compound 0.1 µM)	relative viability (AZD8055 + Trametinib; first compound 0.3162 µM)	relative viability (AZD8055 + Trametinib; first compound 1 µM)	relative viability (AZD8055; 0.01 µM)	relative viability (AZD8055; 0.03162 µM)	relative viability (AZD8055; 0.1 µM)	relative viability (AZD8055; 0.3162 µM)	relative viability (AZD8055; 1 µM)
LK-2	0.147	0.133	0.182	0.15	0.154	0.285	0.204	0.205	0.104	0.135	0.68	0.575	0.509	0.238	0.199	0.84	0.641	0.508	0.24	0.195
NCI-H1993	0.55	0.534	0.518	0.47	0.526	0.646	0.377	0.402	0.366	0.516	0.493	0.443	0.517	0.449	0.413	0.791	0.72	0.577	0.545	0.666
NCI-H838	0.293	0.27	0.248	0.184	0.204	1.06	0.932	0.85	0.711	0.659	0.499	0.335	0.279	0.19	0.201	1.05	0.676	0.442	0.322	0.339
NCI-H1437	0.437	0.458	0.496	0.373	0.238	1.16	1.1	1.12	0.568	0.494	0.524	0.527	0.381	0.247	0.207	1.05	1.02	0.895	0.448	0.318
NCI-H2170	0.794	0.732	0.485	0.349	0.239	1.04	0.733	0.502	0.293	0.226	0.957	0.864	0.614	0.222	0.159	1.01	0.881	0.735	0.365	0.345
NCI-H1648	0.461	0.702	0.34	0.232	0.226	0.708	0.804	0.639	0.413	0.261	0.396	0.446	0.342	0.316	0.209	0.642	0.745	0.542	0.271	0.326
LCLC-103H	0.493	0.494	0.399	0.367	0.25	0.739	0.608	0.592	0.343	0.371	0.628	0.636	0.469	0.456	0.425	0.945	0.86	0.86	0.609	0.519
NCI-H441	0.591	0.767	0.499	0.309	0.295	1.24	1.14	0.837	0.562	0.382	0.432	0.452	0.282	0.229	0.201	1.06	0.929	0.695	0.427	0.387
BEN	0.563	0.48	0.492	0.471	0.345	0.684	0.408	0.41	0.403	0.357	0.87	0.626	0.569	0.467	0.463	0.901	0.6	0.53	0.358	0.325
LC-2-ad	0.491	0.564	0.366	0.339	0.377	0.909	0.873	0.816	0.791	0.645	0.989	0.917	0.828	0.907	0.715	1.04	1.04	0.922	0.621	0.529
RERF-LC-KJ	0.519	0.556	0.421	0.333	0.299	1.26	1.08	0.659	0.402	0.434	0.871	0.816	0.649	0.378	0.38	1.05	0.942	0.822	0.458	0.414
SW 900	0.567	0.747	0.425	0.285	0.34	0.538	1.01	0.54	0.324	0.268	0.897	0.783	0.622	0.374	0.505	0.827	0.783	0.704	0.513	0.236
NCI-H1915	0.533	0.433	0.46	0.387	0.35	0.777	0.48	0.686	0.425	0.454	0.286	0.254	0.259	0.174	0.146	1.01	0.81	0.959	0.63	0.513
NCI-H596	0.698	0.698	0.434	0.308	0.329	1.04	0.776	0.632	0.567	0.489	0.704	0.676	0.577	0.411	0.404	0.953	0.762	0.683	0.469	0.406
NCI-H2126	0.844	0.829	0.687	0.427	0.375	1.03	1.07	0.902	0.587	0.508	0.544	0.469	0.424	0.294	0.359	0.973	0.926	0.743	0.515	0.418
LXF-289	0.234	0.295	0.212	0.201	0.105	1.28	1.2	1.19	0.978	0.744	0.75	0.606	0.627	0.392	0.333	1.07	1.05	1.01	0.909	0.768

Cell Line	relative viability (AZD8055 + Tozasertib; first compound 0.01 µM)	relative viability (AZD8055 + Tozasertib; first compound 0.03162 µM)	relative viability (AZD8055 + Tozasertib; first compound 0.1 µM)	relative viability (AZD8055 + Tozasertib; first compound 0.3162 µM)	relative viability (AZD8055 + Tozasertib; first compound 1 µM)	relative viability (AZD8055 + AZD7762; first compound 0.01 µM)	relative viability (AZD8055 + AZD7762; first compound 0.03162 µM)	relative viability (AZD8055 + AZD7762; first compound 0.1 µM)	relative viability (AZD8055 + AZD7762; first compound 0.3162 µM)	relative viability (AZD8055 + AZD7762; first compound 1 µM)	relative viability (AZD8055 + Trametinib; first compound 0.01 µM)	relative viability (AZD8055 + Trametinib; first compound 0.03162 µM)	relative viability (AZD8055 + Trametinib; first compound 0.1 µM)	relative viability (AZD8055 + Trametinib; first compound 0.3162 µM)	relative viability (AZD8055 + Trametinib; first compound 1 µM)	relative viability (AZD8055; 0.01 µM)	relative viability (AZD8055; 0.03162 µM)	relative viability (AZD8055; 0.1 µM)	relative viability (AZD8055; 0.3162 µM)	relative viability (AZD8055; 1 µM)
HCC-44	1.03	0.914	0.626	0.543	0.613	1.03	1.01	0.972	0.992	0.925	0.994	1.16	0.907	0.802	0.731	0.99	1.03	0.844	0.552	0.473
PC-14	0.834	0.762	0.535	0.109	0.0948	0.458	0.394	0.294	0.147	0.102	0.743	0.715	0.179	0.108	0.138	1.23	1.09	0.715	0.286	0.178
HOP-62	0.414	0.46	0.401	0.292	0.273	0.677	0.418	0.512	0.167	0.111	0.423	0.338	0.27	0.195	0.194	1.09	0.922	1.08	0.639	0.54
NCI-H358	0.0893	0.121	0.102	0.0607	0.0813	0.701	0.557	0.523	0.308	0.203	0.144	0.144	0.116	0.106	0.116	1.03	1.15	0.855	0.323	0.263
NCI-H1666	0.623	0.862	0.589	0.523	0.51	0.945	1.09	0.908	0.76	0.698	0.887	0.877	0.877	0.797	0.793	1.1	1.07	0.925	0.802	0.675
NCI-H1355	0.483	0.5	0.399	0.278	0.228	0.856	0.663	0.594	0.288	0.248	0.379	0.321	0.29	0.211	0.211	0.889	0.865	0.578	0.303	0.261
HCC-827	0.449	0.448	0.447	0.235	0.295	0.203	0.319	0.189	0.212	0.165	0.499	0.445	0.364	0.264	0.258	1.13	1.1	1.11	0.876	0.768
HARA	0.103	0.162	0.0997	0.0987	0.0859	–	0.384	0.406	0.487	0.306	–	0.671	0.497	0.285	0.223	1.11	1.06	0.774	0.563	0.304
HCC-366	0.14	0.0951	0.0932	0.0432	0.0587	0.364	0.255	0.268	0.124	0.0821	0.35	0.217	0.166	0.0931	0.0678	1.11	0.963	0.907	0.698	0.354
NCI-H322M	0.458	0.45	0.408	0.347	0.326	0.51	0.454	0.434	0.426	0.432	0.522	0.467	0.486	0.481	0.398	0.933	0.968	0.741	0.64	0.601
NCI-H2347	0.543	0.515	0.519	0.305	0.252	0.781	0.614	0.633	0.449	0.281	0.282	0.299	0.277	0.233	0.233	1.14	0.942	0.911	0.5	0.48
NCI-H1975	0.804	0.619	0.375	0.189	0.178	0.732	0.636	0.466	0.328	0.348	0.417	0.313	0.193	0.192	0.18	1.05	0.812	0.55	0.347	0.283
NCI-H522	0.571	0.544	0.421	0.421	0.425	0.847	0.799	0.647	0.532	0.569	0.747	0.648	0.574	0.494	0.462	0.965	1	0.723	0.519	0.719
A-427	0.204	0.193	0.22	0.163	0.208	0.762	0.597	0.529	0.5	0.427	0.746	0.577	0.488	0.351	0.334	1.05	0.871	0.893	0.574	0.586
LCLC-97TM1	0.207	0.157	0.128	0.118	0.137	0.23	0.176	0.173	0.145	0.11	0.194	0.164	0.124	0.138	0.123	1.04	0.822	0.453	0.246	0.205
